# From patent US8507540B2, “Oxazolidinone derivatives containing new bicyclic group, having antibacterial activity, and method for treating pathogenic bacterial infections using the same” (Korean Institute of Science and Technology, priority 2011, dated 2013)
# Tests used:
# CYP2D6 = CYP2D6 (Homo sapiens, UniProt P10635); assay: CYP450 remaining test (Vivid CYP450 Screening Kits)
# Method: (§1) CYP450 remaining test was conducted using Vivid® CYP450 Screening Kits Protocol (Invitrogen), and hERG assay for cardiac toxicity test was conducted using an automated patch-clamp device, NPC-16 Patchliner (Nanion Technologies, Munchen, Germany) according to the method of C. Farre, et al. (Combinatorial Chemistry & High Throughput Screening, 2009, 12, 24-37). And, human hepatic microsomal stability test was conducted according to the method of W. A. Korfmacher, et al. (Rapid Commun. Mass Spectrom. 13, 901-907 (1999)).
# [1] = test system: Enterococcus faecium, vancomycin resistant; assay: In vitro antibacterial activity test, Agar Dilution MIC; details: 18 h
# [2] = test system: Staphylococcus pneumoniae, penicillin non-susceptible; assay: as above; details: 18 h
# [3] = test system: Coagulase negative staphylococci, methicillin susceptible; assay: as above; details: 18 h
# [4] = test system: Mycobacterium tuberculosis (Mtb) H37Rv; assay: In vitro antituberculous activity test, Microplate Alamar Blue Assay; format: cell-based; details: versus linezolid
# [5] = test system: Coagulase negative staphylococci, methicillin resistant; assay: In vitro antibacterial activity test, Agar Dilution MIC; details: 18 h
# [6] = test system: Haemophilus influenzae, beta-lactamase-positive; assay: as above; details: 18 h
# [7] = test system: Enterococcus faecalis, vancomycin susceptible; assay: as above; details: 18 h
# [8] = test system: Enterococcus faecalis, vancomycin resistant; assay: as above; details: 18 h
# [9] = test system: Staphylococcus pneumoniae, penicillin susceptible; assay: as above; details: 18 h
# [10] = test system: Enterococcus faecium, vancomycin susceptible; assay: as above; details: 18 h
# [11] = test system: Staphylococcus agalactiae; assay: as above; details: 18 h
# [12] = test system: Staphylococcus aureus, methicillin resistant; assay: as above; details: 18 h
# [13] = test system: Staphylococcus aureus, methicillin susceptible; assay: as above; details: 18 h
# Staphylococcus pyogenes = assay: as above; details: Staphylococcus aureus, 18 h
# [14] = test system: MRSA and other gram positive bacteria; Staphylococcus sp., Enterococcus sp. and Haemophilus influenza; assay: In vitro antibacterial activity test, overall statements on the strain panel; details: various strains of Table 1
# hERG = hERG (Homo sapiens, UniProt Q12809); assay: hERG assay for cardiac toxicity, automated patch-clamp; format: cell-based
# CYP3A4 = CYP3A4 (Homo sapiens, UniProt P08684); assay: CYP450 remaining test (Vivid CYP450 Screening Kits)
# Method: as §1
# CYP1A2 = molecular target: T1, CYP1A2 (Homo sapiens, UniProt P05177); assay: as above; format: in vitro ADME; details: isozyme 1A2
# T1 construct: purchased Invitrogen
# [15] = Human hepatic microsomal stability test; format: in vitro ADME; details: human hepatic microsomes
# CYP2C9 = CYP2C9 (Homo sapiens, UniProt P11712); assay: CYP450 remaining test (Vivid CYP450 Screening Kits)
# [16] = test system: CYP1A2, CYP2D6, CYP2C9, CYP3A4; assay: in vitro; format: in vitro ADME; details: human
# [17] = automated patch-clamp, NPC-16 Patchliner
# hERG, sequence (Q12809 whole entry): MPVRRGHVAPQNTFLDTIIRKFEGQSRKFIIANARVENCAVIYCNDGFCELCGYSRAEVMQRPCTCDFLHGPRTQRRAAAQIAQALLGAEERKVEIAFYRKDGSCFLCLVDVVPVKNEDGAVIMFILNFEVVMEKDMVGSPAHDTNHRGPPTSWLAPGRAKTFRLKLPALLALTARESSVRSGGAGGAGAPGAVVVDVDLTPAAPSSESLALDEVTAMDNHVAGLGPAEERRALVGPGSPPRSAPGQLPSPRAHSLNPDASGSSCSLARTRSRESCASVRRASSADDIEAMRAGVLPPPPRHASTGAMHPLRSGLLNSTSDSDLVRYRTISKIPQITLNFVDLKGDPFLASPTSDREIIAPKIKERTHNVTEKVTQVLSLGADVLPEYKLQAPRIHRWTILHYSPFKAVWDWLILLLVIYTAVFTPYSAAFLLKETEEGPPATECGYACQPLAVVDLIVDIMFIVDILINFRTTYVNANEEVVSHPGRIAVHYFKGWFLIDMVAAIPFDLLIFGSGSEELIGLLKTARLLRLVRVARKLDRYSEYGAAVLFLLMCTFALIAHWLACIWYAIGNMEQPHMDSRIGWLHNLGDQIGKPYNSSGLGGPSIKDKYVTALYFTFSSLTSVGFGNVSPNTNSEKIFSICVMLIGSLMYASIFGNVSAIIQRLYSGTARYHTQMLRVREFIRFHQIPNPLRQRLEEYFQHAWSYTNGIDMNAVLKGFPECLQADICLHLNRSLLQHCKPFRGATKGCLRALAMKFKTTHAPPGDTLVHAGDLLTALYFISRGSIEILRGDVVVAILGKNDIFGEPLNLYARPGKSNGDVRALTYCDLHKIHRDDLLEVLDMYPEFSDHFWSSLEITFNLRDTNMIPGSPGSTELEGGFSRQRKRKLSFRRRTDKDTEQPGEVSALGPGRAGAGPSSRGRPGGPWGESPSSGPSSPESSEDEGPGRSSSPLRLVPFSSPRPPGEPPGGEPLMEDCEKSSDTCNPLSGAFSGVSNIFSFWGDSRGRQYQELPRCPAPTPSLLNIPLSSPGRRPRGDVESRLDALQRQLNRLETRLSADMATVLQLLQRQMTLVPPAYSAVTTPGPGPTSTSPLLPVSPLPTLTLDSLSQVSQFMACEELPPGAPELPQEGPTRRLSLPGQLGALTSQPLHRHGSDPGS
# CYP2C9, sequence (P11712 whole entry): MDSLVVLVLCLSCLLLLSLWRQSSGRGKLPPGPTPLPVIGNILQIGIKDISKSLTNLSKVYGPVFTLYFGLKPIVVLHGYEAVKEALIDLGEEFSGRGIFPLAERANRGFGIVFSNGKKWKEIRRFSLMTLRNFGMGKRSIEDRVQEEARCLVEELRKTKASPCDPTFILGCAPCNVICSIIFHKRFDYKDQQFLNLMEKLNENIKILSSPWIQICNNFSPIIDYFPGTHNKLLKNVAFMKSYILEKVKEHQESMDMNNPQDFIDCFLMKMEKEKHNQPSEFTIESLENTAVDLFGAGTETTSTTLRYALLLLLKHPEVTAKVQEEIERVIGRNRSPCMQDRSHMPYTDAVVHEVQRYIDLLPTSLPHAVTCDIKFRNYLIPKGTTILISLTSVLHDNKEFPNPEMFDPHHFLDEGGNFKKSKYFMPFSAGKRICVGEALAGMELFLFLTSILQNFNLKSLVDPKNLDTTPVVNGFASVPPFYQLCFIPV
# CYP2D6, sequence (P10635 whole entry): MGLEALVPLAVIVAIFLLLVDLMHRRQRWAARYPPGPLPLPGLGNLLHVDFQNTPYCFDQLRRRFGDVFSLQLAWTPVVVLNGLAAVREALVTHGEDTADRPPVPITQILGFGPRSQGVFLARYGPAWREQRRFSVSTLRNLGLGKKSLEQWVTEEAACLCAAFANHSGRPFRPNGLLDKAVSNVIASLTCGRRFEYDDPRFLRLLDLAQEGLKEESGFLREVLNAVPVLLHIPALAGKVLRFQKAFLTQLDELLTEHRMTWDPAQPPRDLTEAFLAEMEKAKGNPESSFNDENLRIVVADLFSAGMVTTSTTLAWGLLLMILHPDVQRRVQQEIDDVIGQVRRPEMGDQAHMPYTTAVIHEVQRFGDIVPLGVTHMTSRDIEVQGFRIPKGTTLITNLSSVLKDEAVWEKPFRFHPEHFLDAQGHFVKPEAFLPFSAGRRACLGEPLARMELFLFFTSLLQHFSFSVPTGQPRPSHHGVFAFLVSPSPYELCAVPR
# CYP3A4, sequence (P08684 whole entry): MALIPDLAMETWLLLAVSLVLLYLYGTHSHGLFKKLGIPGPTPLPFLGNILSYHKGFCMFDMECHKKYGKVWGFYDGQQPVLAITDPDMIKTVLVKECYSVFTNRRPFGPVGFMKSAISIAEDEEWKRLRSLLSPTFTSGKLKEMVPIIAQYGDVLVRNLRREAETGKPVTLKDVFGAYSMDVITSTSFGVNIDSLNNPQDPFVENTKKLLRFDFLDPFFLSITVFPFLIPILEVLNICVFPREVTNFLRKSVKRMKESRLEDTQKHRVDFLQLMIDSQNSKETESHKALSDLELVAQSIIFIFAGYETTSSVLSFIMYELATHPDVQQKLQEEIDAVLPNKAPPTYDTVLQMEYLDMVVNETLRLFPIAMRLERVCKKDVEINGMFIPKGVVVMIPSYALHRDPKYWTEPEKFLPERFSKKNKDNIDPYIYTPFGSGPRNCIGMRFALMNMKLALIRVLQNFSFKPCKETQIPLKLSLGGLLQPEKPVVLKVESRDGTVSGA
# T1 sequence (P05177 whole entry): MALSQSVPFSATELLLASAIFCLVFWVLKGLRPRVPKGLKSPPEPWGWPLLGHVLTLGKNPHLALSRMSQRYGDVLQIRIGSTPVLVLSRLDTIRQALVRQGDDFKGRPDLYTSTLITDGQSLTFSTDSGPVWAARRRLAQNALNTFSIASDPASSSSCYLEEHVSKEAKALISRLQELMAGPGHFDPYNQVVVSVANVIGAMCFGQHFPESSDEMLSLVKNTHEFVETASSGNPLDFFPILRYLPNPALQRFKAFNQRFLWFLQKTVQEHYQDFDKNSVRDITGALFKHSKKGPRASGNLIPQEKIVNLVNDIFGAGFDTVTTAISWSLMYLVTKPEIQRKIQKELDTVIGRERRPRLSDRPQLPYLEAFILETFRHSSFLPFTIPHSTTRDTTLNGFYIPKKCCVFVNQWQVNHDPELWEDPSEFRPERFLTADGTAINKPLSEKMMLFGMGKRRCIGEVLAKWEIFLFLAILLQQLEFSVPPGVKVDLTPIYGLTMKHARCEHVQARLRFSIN
SMILES,MIC [1],MIC [2],MIC [3],antituberculous activity compared to linezolid [4],MIC [5],MIC [6],MIC [7],MIC [8],MIC [9],MIC [10],MIC [11],MIC [12],MIC [13],MIC (Staphylococcus pyogenes),antibacterial activity against the strain panel [14],also measured
"C=C[C@H]1C[N@@]2CC[C@H]1C[C@@H]2[C@@H](O)c1ccnc2ccc(OC)cc12 [quinidine, reference compound]",–,–,–,–,–,–,–,–,–,–,–,–,–,–,–,activity (CYP2D6): 11.1%
"CON=C1CC2CN(c3ccc(N4C[C@H](Cn5ccnn5)OC4=O)cc3F)CC2C1 (stereo partly drawn) [Example 6, (5R)-3-[3-fluoro-4-(5-methoxyimino-hexahydro-cyclopenta[c]pyrrol-2-yl)phenyl]-5-(1,2,3-triazol-1-ylmethyl)oxazolidin-2-one]",1.5 µg/mL,0.1 µg/mL,6.2 µg/mL,antibacterial effects equivalent to linezolid,6.2 µg/mL,0.3 µg/mL,1.5 µg/mL,3.1 µg/mL,0.3 µg/mL,1.5 µg/mL,0.3 µg/mL,6.2 µg/mL,6.2 µg/mL,0.1 µg/mL,–,–
"N#CCC1=CC2CN(c3ccc(N4C[C@H](Cn5ccnn5)OC4=O)cc3F)CC2C1 (stereo partly drawn) [Example 8, (5R)-3-[4-(5-cyanomethyl-3,3a,4,6a-tetrahydro-1H-cyclopenta[c]pyrrol-2-yl)-3-fluorophenyl]-5-(1,2,3-triazol-1-ylmethyl)oxazolidin-2-one]",6.2 µg/mL,1.5 µg/mL,6.2 µg/mL,–,6.2 µg/mL,1.5 µg/mL,6.2 µg/mL,6.2 µg/mL,3.1 µg/mL,6.2 µg/mL,3.1 µg/mL,1.5 µg/mL,6.2 µg/mL,1.5 µg/mL,–,–
"CC(=O)NC[C@H]1CN(c2ccc(N3CC4C=C(C#N)CC4C3)c(F)c2)C(=O)O1 (stereo partly drawn) [Example 3, N-[[(5S)-3-[4-(5-cyano-3,3a,4,6a-tetrahydro-1H-cyclopenta[c]pyrrol-2-yl)-3-fluorophenyl]-2-oxo-5-oxazolidinyl]methyl]acetamide]",1.5 µg/mL,0.3 µg/mL,3.1 µg/mL,more excellent antibacterial activities than linezolid,3.1 µg/mL,0.3 µg/mL,3.1 µg/mL,3.1 µg/mL,0.7 µg/mL,1.5 µg/mL,1.5 µg/mL,1.5 µg/mL,3.1 µg/mL,0.7 µg/mL,high antibacterial activities,–
"O=C1O[C@@H](Cn2ccnn2)CN1c1ccc(N2CC3CC(=NO)CC3C2)c(F)c1 (stereo partly drawn) [Example 5, (5R)-3-[3-fluoro-4-(5-hydroxyimino-hexahydro-cyclopenta[c]pyrrol-2-yl)phenyl]-5-(1,2,3-triazol-1-ylmethyl)oxazolidin-2-one]",6.2 µg/mL,0.7 µg/mL,6.2 µg/mL,–,6.2 µg/mL,3.1 µg/mL,6.2 µg/mL,6.2 µg/mL,1.5 µg/mL,3.1 µg/mL,1.5 µg/mL,6.2 µg/mL,6.2 µg/mL,0.7 µg/mL,–,–
"O=C1CC2CN(c3ccc(N4C[C@H](Cn5ccnn5)OC4=O)cc3F)CC2C1 (stereo partly drawn) [Example 4, (5R)-3-[3-fluoro-4-(5-oxo-hexahydro-cyclopenta[c]pyrrol-2-yl)phenyl]-5-(1,2,3-triazol-1-ylmethyl)oxazolidin-2-one]",3.1 µg/mL,0.3 µg/mL,3.1 µg/mL,more excellent antibacterial activities than linezolid,3.1 µg/mL,1.5 µg/mL,1.5 µg/mL,1.5 µg/mL,0.7 µg/mL,1.5 µg/mL,0.7 µg/mL,3.1 µg/mL,3.1 µg/mL,0.3 µg/mL,high antibacterial activities,"IC50 (hERG; [17]): 80.5 µM; hERG Max, (hERG; [17]): 38%; hERG bonding (hERG; in vitro hERG assay, cardiac toxicity): does not have hERG bonding; activity (CYP3A4): 106%; activity (CYP2D6): 108%; activity (CYP1A2): 94.9%; Human Hepatic Microsomal stability Remaining activity after 30 minutes (%) [15]: 83.8%; activity (CYP2C9): 73.7%; activity [16]: 73.6 to 106%"
"Nc1ccc(S(=O)(=O)Nc2ccnn2-c2ccccc2)cc1 [sulfaphenazol, reference compound]",–,–,–,–,–,–,–,–,–,–,–,–,–,–,–,activity (CYP2C9): -3.5%
"CC(=O)NC[C@H]1CN(c2ccc(N3CC4C=C(CC#N)CC4C3)c(F)c2)C(=O)O1 (stereo partly drawn) [Example 2, N-[[(5S)-3-[4-(5-cyanomethyl-3,3a,4,6a-tetrahydro-1H-cyclopenta[c]pyrrol-2-yl)-3-fluorophenyl]-2-oxo-5-oxazolidinyl]methyl]acetamide]",1.5 µg/mL,0.7 µg/mL,3.1 µg/mL,antibacterial effects equivalent to linezolid,3.1 µg/mL,1.5 µg/mL,1.5 µg/mL,3.1 µg/mL,0.7 µg/mL,1.5 µg/mL,1.5 µg/mL,1.5 µg/mL,3.1 µg/mL,0.7 µg/mL,high antibacterial activities,–
"CC(=O)NC[C@H]1CN(c2ccc(N3CC4CC(=CC#N)CC4C3)c(F)c2)C(=O)O1 (stereo partly drawn) [Example 1, N-[[(5S)-3-[4-(5-cyanomethylene-hexahydro-cyclopenta[c]pyrrol-2-yl)-3-fluorophenyl]-2-oxo-5-oxazolidinyl]methyl]acetamide]",1.5 µg/mL,0.7 µg/mL,3.1 µg/mL,antibacterial effects equivalent to linezolid,3.1 µg/mL,0.7 µg/mL,1.5 µg/mL,1.5 µg/mL,0.7 µg/mL,0.7 µg/mL,1.5 µg/mL,3.1 µg/mL,3.1 µg/mL,0.7 µg/mL,–,–
"CC(=O)N1CCN(c2ccc(OCC3COC(Cn4ccnc4)(c4ccc(Cl)cc4Cl)O3)cc2)CC1 (centres unmarked) [ketoconazole, reference compound]",–,–,–,–,–,–,–,–,–,–,–,–,–,–,–,activity (CYP3A4): 2.3%
"N#CC1=CC2CN(c3ccc(N4C[C@H](Cn5ccnn5)OC4=O)cc3F)CC2C1 (stereo partly drawn) [Example 9, (5R)-3-[4-(5-cyano-3,3a,4,6a-tetrahydro-1H-cyclopenta[c]pyrrol-2-yl)-3-fluorophenyl]-5-(1,2,3-triazol-1-ylmethyl)oxazolidin-2-one]",3.1 µg/mL,0.7 µg/mL,3.1 µg/mL,–,3.1 µg/mL,0.7 µg/mL,3.1 µg/mL,3.1 µg/mL,1.5 µg/mL,3.1 µg/mL,1.5 µg/mL,1.5 µg/mL,3.1 µg/mL,0.7 µg/mL,–,–
"CC(=O)NC[C@H]1CN(c2ccc(N3CCOCC3)c(F)c2)C(=O)O1 [LZD, linezolid, reference compound]",1.5 µg/mL,0.7 µg/mL,3.1 µg/mL,–,3.1 µg/mL,0.7 µg/mL,1.5 µg/mL,1.5 µg/mL,0.7 µg/mL,1.5 µg/mL,1.5 µg/mL,3.1 µg/mL,3.1 µg/mL,0.7 µg/mL,–,–
"N#CC=C1CC2CN(c3ccc(N4C[C@H](Cn5ccnn5)OC4=O)cc3F)CC2C1 (stereo partly drawn) [Example 7, (5R)-3-[4-(5-cyanomethylene-hexahydro-cyclopenta[c]pyrrol-2-yl)-3-fluorophenyl]-5-(1,2,3-triazol-1-ylmethyl)oxazolidin-2-one]",1.5 µg/mL,0.3 µg/mL,1.5 µg/mL,antibacterial effects equivalent to linezolid,1.5 µg/mL,0.3 µg/mL,1.5 µg/mL,3.1 µg/mL,0.7 µg/mL,1.5 µg/mL,0.7 µg/mL,0.7 µg/mL,1.5 µg/mL,0.3 µg/mL,high antibacterial activities,–
